Read-outs that look alike come from different tables or passages of the source.
Key:
[1] = Phase 1b clinical study (NCT01814826): plasma PK of PEV in combination with AZA; assay type: in vivo, human; details: for Cmax / half-life / Tmax: human; for Cmax / half-life / Tmax / AUC24 / AUC48: plasma; for Cmax / AUC24 / AUC48: geometric mean; for half-life: mean; for Tmax: median
Experimental: Serial blood samples for the determination of PEV concentrations were obtained during the first cycle of treatment, at pre-specified time points before and up to 48 hours after the start of the infusion on days 1 and 5.

[2] = tested on: patients with relapsed/refractory AML and MDS; details: single-agent PEV, cited from earlier work
AML cells = details: cited from earlier work; for combination effect on viability: Combination Index and Blending Synergy Analysis
[3] = single-agent PEV, cited from earlier work
[4] = tested on: older unfit patients with increased marrow blasts (>30%); details: cited from earlier work
patients with AML = patients with AML on the Austrian AZA registry; cited from earlier work
[5] = intravenous, dose escalation, 20 mg/m^2 cohort (N = 6), cycle 1, day 1
[6] = intravenous, dose escalation, 20 mg/m^2 cohort (N = 6), cycle 1, day 5
[7] = intravenous, dose escalation, 30 mg/m^2 cohort (N = 3), cycle 1, day 1
[8] = iv, MTD expansion, IV AZA cohort (N = 26), cycle 1, day 1
[9] = iv, MTD expansion, IV AZA cohort (N = 26), cycle 1, day 5
[10] = sc, MTD expansion, SC AZA cohort (N = 28), cycle 1, day 1
[11] = sc, MTD expansion, SC AZA cohort (N = 28), cycle 1, day 5
[12] = dose escalation, 20 mg/m^2 cohort (N = 6), cycle 1, day 1
[13] = dose escalation, 20 mg/m^2 cohort (N = 6), cycle 1, day 5
[14] = dose escalation, 30 mg/m^2 cohort (N = 3), cycle 1, day 1
[15] = AZA-AML-001, randomized AZA or CCR

With `NS(=O)(=O)OC[C@@H]1C[C@@H](n2ccc3c(N[C@H]4CCc5ccccc54)ncnc32)C[C@@H]1O` [PEV, ((1S,2S,4R)-4-{4-[(1S)-2,3-dihydro-1H-inden-1-ylamino]-7H-pyrrolo[2,3-d]pyrimidin-7-yl}-2-hydroxycyclopentyl)methyl sulfamate] the “observed accumulation ratio Rac” value ([1]; day 5 versus day 1, five days of continuous dosing with AZA) was ~1, the Cmax [1, 5] was 158 ng/mL and the half-life [1, 5] was 7.8 h. For the same compound, the Tmax [1, 5] was 1.06 h, the Cmax [1, 6] was 165 ng/mL and the half-life [1, 6] was 7.98 h. For the same compound, the Tmax [1, 6] was 0.99 h, the Cmax [1, 7] was 299 ng/mL and the half-life [1, 7] was 7.39 h. It also gave a Tmax [1, 7] of 0.98 h, a Cmax [1, 8] of 155 ng/mL and a half-life [1, 8] of 7.45 h. For the same compound, the Tmax [1, 8] was 1.01 h, the Cmax [1, 9] was 164 ng/mL and the half-life [1, 9] was 8.07 h. It also gave a Tmax [1, 9] of 1 h, a Cmax [1, 10] of 152 ng/mL and a half-life [1, 10] of 7.3 h. For the same compound, the Tmax [1, 10] was 1 h, the Cmax [1, 11] was 148 ng/mL and the half-life [1, 11] was 7.89 h. It also gave a Tmax [1, 11] of 0.98 h, an AUC24 ([1]; MTD expansion, IV AZA cohort (N = 26), cycle 1, day 1) of 861 ng·h/mL and an AUC24 ([1]; MTD expansion, IV AZA cohort (N = 26), cycle 1, day 5) of 921 ng·h/mL. For the same compound, the AUC48 ([1]; MTD expansion, IV AZA cohort, N = 12, cycle 1, day 1) was 976 ng·h/mL, the AUC48 ([1]; MTD expansion, IV AZA cohort, N = 13, cycle 1, day 5) was 1100 ng·h/mL and the AUC24 ([1]; MTD expansion, SC AZA cohort (N = 28), cycle 1, day 1) was 890 ng·h/mL. It also gave an AUC24 ([1]; MTD expansion, SC AZA cohort (N = 28), cycle 1, day 5) of 926 ng·h/mL, an AUC48 ([1]; MTD expansion, SC AZA cohort, N = 11, cycle 1, day 1) of 1000 ng·h/mL and an AUC48 ([1]; MTD expansion, SC AZA cohort, N = 18, cycle 1, day 5) of 1100 ng·h/mL. The AUC24 [1, 12] was 990 ng·h/mL, the AUC48 [1, 12] was 1110 ng·h/mL and the AUC24 [1, 13] was 986 ng·h/mL. It also gave an AUC48 [1, 13] of 1090 ng·h/mL, an AUC24 [1, 14] of 1640 ng·h/mL and an AUC48 [1, 14] of 1770 ng·h/mL. For the same compound, the “PEV PK in the presence of AZA compared with historical single-agent data” value ([1]; systemic exposure) was “not altered”, the “DLTs at starting dose” value (PEV 20 mg/m^2 (n=6) with AZA, dose escalation) was “absence of DLTs” and the “final posterior estimate of probability of toxicity” value (PEV 20 mg/m^2, CRM model) was 24%. The “DLTs in the MTD expansion cohort” value (PEV 20 mg/m^2 with AZA (n=55), grade ≥3 transaminase elevation) was “two additional patients experienced DLTs”, the “patients who experienced a DLT” value (PEV 30 mg/m^2 dose level (n=3) with AZA, grade 2 bilirubin elevation, grade 4 AST elevation) was “two of the three” and the “MTD for PEV” value (combined with AZA in standard doses, IV days 1, 3, 5 of 28-day cycles) was 20 mg/m^2. The “Overall response rate (ORR)” value ([2]; schedule A, patients treated at or below the MTD (4/23)) was 17%, the “Overall response rate (ORR)” value ([2]; schedule B, patients treated at or below the MTD (2/19)) was 10% and the “DNA damage and cell death” value (AML cells; PEV combined with AZA compared with either agent alone, immunoblotting and flow cytometry) was “significantly increased DNA damage and cell death”. The “combination effect on viability” value (AML cells; PEV with AZA) was “synergistically lethal”, the “combination effect on viability” value (AML cells; PEV with decitabine) was “synergistically lethal” and the “maximum tolerated dose (MTD)” value ([3]; schedule A: 1-hour IV infusion days 1, 3, 5 every 21 days) was 59 mg/m^2. The dose-limiting toxicity ([3]; schedule A) was “elevation of alanine aminotransferase (ALT)/aspartate aminotransferase (AST)”, the “maximum tolerated dose (MTD)” value ([3]; schedule B: days 1, 4, 8, 11 every 21 days) was 83 mg/m^2 and the dose-limiting toxicity ([3]; schedule B) was “Multi-organ failure (MOF)”.
In the case of `Nc1ncn([C@@H]2O[C@H](CO)[C@@H](O)[C@H]2O)c(=O)n1` [AZA, azacitidine], the 1-year survival [4, 15] is listed as 46.5%, the “median OS” value [4, 15] is listed as 10.4 months and the response rates [4, 15] is listed as 27.8%. The “composite CR/PR rate” value ([4]; patients randomized to AZA alone, large randomized French study (ref 6)) was 29% and the “median OS” value (patients with AML) was ~10 months.

Reference: US20200377958A1, “BIOMARKERS AND METHODS FOR TREATMENT WITH NAE INHIBITORS” (Millennium Pharmaceuticals, Inc., priority 2017, published 2020)
